Data from patent US9228998B2, “Drug monitoring methods using the promyelocytic leukemia protein as a redox sensor” (Institut National de la Sante et de la Recherche Medicale …, priority 2010, dated 2016).

How the values were obtained:
[1] = molecular target: T1, PML (Homo sapiens, UniProt P29590); assay: Western-blot analysis under non-reducing conditions of PML-transfected CHO cells (disulfide-linked PML complexes); format: cell-based; design: amounts of covalent PML multimers: concentration or dose not given beside the values; conditions: for amounts of covalent PML multimers: short exposure, CHO cells transiently overexpressing PML; for covalent PML homodimers: transiently PML- or PML3KR-transfected cells, non-reducing conditions; for formation of covalent multimers: pretreatment, transiently PML-transfected CHO cells
T1 construct: expressed in transfected cells; host or cells: CHO (transient)
T1 sequence (P29590 1-641 isoform P29590-9): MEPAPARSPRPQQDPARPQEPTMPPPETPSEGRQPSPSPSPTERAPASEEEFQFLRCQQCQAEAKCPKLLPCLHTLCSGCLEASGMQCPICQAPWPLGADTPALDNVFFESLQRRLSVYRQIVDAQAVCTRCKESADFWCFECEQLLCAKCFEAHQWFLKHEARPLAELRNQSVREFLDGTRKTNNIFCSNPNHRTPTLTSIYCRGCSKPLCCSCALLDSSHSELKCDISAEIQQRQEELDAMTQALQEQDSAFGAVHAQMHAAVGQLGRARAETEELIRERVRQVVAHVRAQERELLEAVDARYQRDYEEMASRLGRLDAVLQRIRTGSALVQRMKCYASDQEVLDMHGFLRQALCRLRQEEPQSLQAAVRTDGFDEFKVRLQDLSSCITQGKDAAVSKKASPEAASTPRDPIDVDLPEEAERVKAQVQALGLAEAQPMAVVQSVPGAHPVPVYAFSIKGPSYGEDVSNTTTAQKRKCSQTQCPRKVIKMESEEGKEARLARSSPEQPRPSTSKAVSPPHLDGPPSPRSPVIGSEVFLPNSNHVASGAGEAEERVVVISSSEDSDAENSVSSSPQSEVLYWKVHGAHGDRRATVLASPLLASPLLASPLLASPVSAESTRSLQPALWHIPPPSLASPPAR
Description: (§1) HeLa, MRC5, CHO, COS, SaOS and Pml−/− MEF cells were cultured in 10% Fetal calf serum DMEM medium (Gibco). Plasmid transfections were performed in CHO or COS with Effectene transfection reagent (Qiagen). Stable CHO cell lines, expressing the PML isoform, or its mutants, were obtained by cotransfection of pSG5-PMLΔSIM, pSG5-3K/RΔSIM, pSG5-C212A or pSG5-B1 with the Dsp-Hygro vector; selected for 2 weeks in […] hygromycin-containing media. Clones were selected for similar PML expression levels. PML WT, PML C60A, PMLΔCC and PML 3K/R stable expressing cell lines were described previously^25. MRC5 or SaOS were grown on coverslides and treated with 400 U/ml IFNg for 48 h and IFNa for 24 h to induce PML expression. Primary mouse APL blasts were obtained from serially transplanted APLs^16 and then cultured in RPMI medium, 10% FCS supplemented with IL-3, IL-6 and SCF (Gibco). Infection of immortalized pml−/− MEFs or primary progenitors was performed with retroviruses produced by CaCl2 transfection of Plat-E cells by with the MSCV-PML/RARA retroviral vector^16. Pml−/− or +/+ MEF cells were similarly transduced with MSCV-PML or PML mutants.
(§2) As2O3 (Fluka) treatments were performed at 1 mM or 10 mM for 1 h. H2O2 from SIGMA-Aldrich was performed for 30 min at 0.1, 1 or 10 mM as indicated, Phenylarsine oxide (PAO) was purchased from SIGMA, solubilized at 50 mg/ml in DMSO and used at 0.1 mM, 1 mM or 10 mM for 1 h, CdCl2 from Flucka, was used at a final concentration of 10 mM. Cells were treated with 10 mM Lactacystin (Calbiochem) overnight, and with 50 mg/ml ready-made cycloheximide (SIGMA) as indicated. Pre-treatments with 100 mM N-ethyl maleimide (NEM) (SIGMA) for 30 min were carried out before adding As2O3 or H2O2. TC-FlAsH (FlAs) was from Molecular Probes; cells growing on coverslides were treated with 1 mM for 1 h, washed in PBS before PFA fixation. Dithiarsolan-biotin conjugate (arsenic-biotin) was kindly given by Kenneth L. Kirk^53, solubilized in DMSO to a 5 mM stock solution, and used on cell culture at 10 mM for 1 h.
Cell lysates were resolved on 7%, 3 to 10% gradient or 12% SDS-PAGE gels and transferred onto nitrocellulose membranes. Detection was performed with the chemi-luminescent substrate SuperSignal WestPico (Pearce), using previously described home made mouse and chicken anti-hPML antibodies^15,25, the PML isoform-specific antibodies were characterized previously^29. For analysis under non-reducing conditions, b-Mercapto-Ethanol or DTT was omitted from the standard Laemmli buffer. In situ nuclear matrix was prepared as for immunofluorescence, but finally resuspended in Laemmli buffer. Purifications of 6M Guanidium-HCl denatured (His×6)-tagged proteins were done with Ni-NTA-agarose from Qiagen, as previously^25. The purification of the arsenic-bound proteins were performed from As-biotin treated CHO-PML or transiently pSG5-PML wt or C212A transfected COS cells. Cells were lysed in 2% SDS-containing RIPA with Protease Inhibitor Cocktail (PIC) (Roche Applied Science), denatured at 95° C. for 5 min to release nuclear matrix-associated PML. Streptavidin-agarose (Molecular Probes) was added to the […] lysates for 30 min to 1 h, washed three times in RIPA and arsenic bound proteins were eluted in Laemmli buffer.
Intermolecular disulfide bonds were previously implicated in stabilization of the nuclear matrix. […] We then compared total and nuclear matrix extracts from transiently transfected CHO cells under non-reducing conditions and observed that the matrix fraction was dramatically enriched in covalent PML dimers.

[2] = molecular target: T2, PML NBs (Homo sapiens, UniProt P29590); assay: NB formation in CHO-PML xenografts in nude mice; format: in vivo; conditions: treatment of nude mice bearing CHO-PML xenografts
T2 construct: expressed in transfected cells
T2 sequence (P29590 1-641 isoform P29590-9): T1 sequence (P29590 1-641 isoform P29590-9)
Description: (§3) Mouse experiments were repeated 3 times. Animal handling was done according to the guidelines of institutional animal care committees, using protocols approved by “Comité Régional d'Ethique Expérimentation Animale (CREEA) no 4”. 25 mg/kg Paraquat (SIGMA) was daily intraperitoneally injected in PML/RARA and PML/RARA-S77A leukemic mice^17 (to be fully described elsewhere). In vivo imaging was performed using a Xenogen IVIS100 facility to ensure similar tumor mass pre-treatment. Mice were treated with 150 mg/kg for 1 h before bone marrow cytospins (from FVB/NICO) and […] tumor cryosections (NUDE/SWISS) immuno-histochemistry; CHO-PML xenografts were performed as before^42.
(§4) Disulfide bonds are oxidant-sensitive. […] As ROS status is profoundly altered in cell culture, we examined NBs in vivo in basal conditions and after acute induction of ROS. […] Thus, oxidation-triggered disulfide bonds in PML regulate its partitioning between the nucleoplasm and nuclear matrix associated NBs.
(§5) We next investigated whether oxidants enhance disulfide-bound PML multimerization. […] We thus examined whether paraquat, an acute ROS inducer, would regulate NB formation in vivo, a setting where ROS levels are likely more controlled.

[3] = molecular target: T3, endogenous murine PML (Mus musculus, UniProt Q60953); assay: NB formation by endogenous murine PML in bone marrow cells of treated mice; format: in vivo; conditions: normal bone marrow cells of treated mice
T3 construct: from tissue; host or cells: mouse bone marrow cells (cytospins, FVB/NICO mice)
T3 sequence (Q60953 1-885): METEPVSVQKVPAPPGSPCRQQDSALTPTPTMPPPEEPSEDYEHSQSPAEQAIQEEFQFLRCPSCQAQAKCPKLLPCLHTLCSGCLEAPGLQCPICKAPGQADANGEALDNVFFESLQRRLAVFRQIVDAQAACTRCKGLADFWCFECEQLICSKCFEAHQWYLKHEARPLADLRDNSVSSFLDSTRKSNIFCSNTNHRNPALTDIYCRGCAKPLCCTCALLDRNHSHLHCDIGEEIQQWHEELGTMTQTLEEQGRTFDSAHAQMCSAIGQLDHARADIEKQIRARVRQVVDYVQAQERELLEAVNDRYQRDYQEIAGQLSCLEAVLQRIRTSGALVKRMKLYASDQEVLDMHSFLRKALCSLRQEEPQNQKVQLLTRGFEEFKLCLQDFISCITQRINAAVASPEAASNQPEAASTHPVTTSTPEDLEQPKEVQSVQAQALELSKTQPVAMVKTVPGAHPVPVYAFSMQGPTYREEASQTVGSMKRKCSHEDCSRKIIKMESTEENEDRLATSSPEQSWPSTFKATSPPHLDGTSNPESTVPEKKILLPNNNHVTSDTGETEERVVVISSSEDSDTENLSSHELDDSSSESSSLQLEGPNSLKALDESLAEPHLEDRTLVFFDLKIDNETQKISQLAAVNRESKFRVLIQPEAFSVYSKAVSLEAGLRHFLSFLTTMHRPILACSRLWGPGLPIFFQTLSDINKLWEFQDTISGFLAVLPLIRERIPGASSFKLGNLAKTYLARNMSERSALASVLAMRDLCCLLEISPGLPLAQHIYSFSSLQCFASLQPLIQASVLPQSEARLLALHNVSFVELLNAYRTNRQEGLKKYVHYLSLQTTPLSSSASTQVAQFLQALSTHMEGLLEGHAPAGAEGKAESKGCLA
Description: as §3, §4, §5

[4] = molecular target: T2, PML NBs; assay: PML NBs in cultured cells (CHO-PML), immunofluorescence; format: cell-based
Description: as §1, §2
Immunofluorescence, electronic microscopy and antibodies were previously described^15. In situ nuclear matrix preparations were prepared as described^1. Confocal analyses were performed on a LSM510 Meta laser microscope (Carl Zeiss MicroImaging, Inc.) with a plan apochromat 63X N.A.1.4 oil immersion objective and increased resolution images were obtained with deconvolution software (Autodeblur, Image Quant) using blind iterative algorithms.

SMILES | amounts of covalent PML multimers [1] | covalent PML homodimers [1] | NB formation in CHO-PML xenografts [2] | NB formation by endogenous murine PML [3] | NBs in cultured cells with strong oxidants [4] | formation of covalent multimers [1] | further results
O=[As]O[As]=O (centres unmarked) [As2O3] | massively increased | dramatic increase | dramatic increase in NB formation | Enhanced NB formation |  |  | 
[Cl][Cd][Cl] [CdCl2] | massively increased |  |  |  | disrupt NBs |  | 
OO [H2O2] | massively increased | dramatic increase |  |  | disrupt NBs |  | 
CC(=O)N[C@@H](CS)C(=O)O [NAC, N-acetyl cysteine] |  |  |  |  |  | abrogated | abundance of the high molecular weight PML forms ([1]; pretreatment of CHO cells prior to PML transfection): dramatic decrease; basal NB formation ([4]; CHO-PML cells cultured for 10 days with the ROS scavenger): lost basal NB formation; NBs after wash-out ([4]; CHO-PML cells, 3 day wash-out after 10 days culture): NBs were restored
CCN1C(=O)C=CC1=O [NEM, N-ethyl maleimide] |  |  |  |  |  | abrogated | As2O3 or H2O2-enhanced homodimer formation ([1]; thiol alkylator added with As2O3 or H2O2): abrogated; basal PML NBs ([4]; untreated cells / CHO-PML cells, 1 hr treatment): disrupted basal PML NBs
C[n+]1ccc(-c2cc[n+](C)cc2)cc1 [Paraquat] |  |  | dramatic increase in NBs | Identical results |  |  | NB formation in CHO-PML xenografts ([2]; listed as paraquat): dramatic increase in NB formation; NB formation by endogenous murine PML ([3]; listed as paraquat): Enhanced NB formation
